In patent US11548883B2, “Compounds as autotaxin inhibitors and pharmaceutical compositions comprising the same” (LegoChem Biosciences, Inc., priority 2017, dated 2023):
Counter-ions that a name gives are not always drawn.

These compounds were tested against human ENPP2 (Homo sapiens (Human), UniProt Q13822) (assay: Inhibitory activity on human ENPP2 (FS-3 assay)). Conditions: human ENPP2, FS-3 substrate, Table 2.
Assay type: biochemical
Experimental: Two-fold dilution of each test compound solution (10 μM, 100% dimethyl sulfoxide) is carried out on 96-well V bottom plate (Costar 3363). After ten-fold dilution of each the test compound solution (100% dimethyl sulfoxide) with deionized distilled water, 10 μL of the diluted each compound solution (10% dimethyl sulfoxide) was aliquoted to a black flat bottom 96-well plate (Costar 3915).
In the case of `CN1C(=O)N(c2ccc3[nH]nnc3c2)C2(CCN(C(=O)c3cnc(NCc4cccc(OC(F)(F)F)c4)nc3)CC2)C1=O` [Compound 9, 1-(1H-1,2,3-benzotriazol-5-yl)-3-methyl-8[2-({[3-(trifluoromethoxy)phenyl]methyl}amino)pyrimidine-5-carbonyl]-1,3,8-triazaspiro[4,5]-decane-2,4-dione], the IC50 is reported as 9 nM. Compound `O=C(Cc1nnc(-c2cnc(NC3Cc4ccccc4C3)nc2)o1)N1CCc2[nH]nnc2C1` [Compound 33, 2-(5-(2-((2,3-dihydro-1H-inden-2-yl)amino)pyrimidin-5-yl)-1,3,4-oxadiazol-2-yl)-1-(1,4,6,7-tetrahydro-5H-[1,2,3]triazolo[4,5-c]pyridin-5-yl)ethan-1-one] has an IC50 of 2 nM. `O=C(O)C1=CCN(C(=O)Cc2nnc(-c3cnc(NC4Cc5ccccc5C4)nc3)o2)CC1` [Compound 48, 1-[2-(5-{2-[(2,3-dihydro-1H-inden-2-yl)amino]pyrimidin-5-yl}-1,3,4-oxadiazol-2-yl)acetyl]-1,2,3,6-tetrahydropyridine-4-carboxylic Acid] gave an IC50 of 13.3 nM. In the case of `O=C(Cc1nnc(-c2cnc(NC3Cc4ccccc4C3)nc2)o1)Nc1ccc(C(=O)O)cc1` [Compound 50, 4-[2-(5-{2-[(2,3-dihydro-1H-inden-2-yl)amino]pyrimidin-5-yl}-1,3,4-oxadiazol-2-yl)acetamido]benzoic Acid], the IC50 is reported as 4.5 nM. `O=C(Cc1nnc(-c2cnc(NC3Cc4ccccc4C3)nc2)[nH]1)N1CCc2[nH]nnc2C1` [Compound 52, 2-(5-{2-[(2,3-dihydro-1H-inden-2-yl)amino]pyrimidin-5-yl}-4H-1,2,4-triazol-3-yl)-1-{1H,4H,5H,6H,7H-[1,2,3]triazolo[4,5-c]pyridin-5-yl}ethan-1-one] gave an IC50 of 3.6 nM. Work on `CCc1cc(-c2cnc(NC3Cc4ccccc4C3)nc2)nn1CC(=O)N1CCc2[nH]nnc2C1` [Compound 54, 2-(3-{2-[(2,3-dihydro-1H-inden-2-yl)amino]pyrimidin-5-yl}-5-ethyl-1H-pyrazol-1-yl)-1-{1H,4H,5H,6H,7H-[1,2,3]triazolo[4,5-c]pyridin-5-yl}ethan-1-one] yielded an IC50 of 15.8 nM. Compound `O=C(Cn1cc(-c2cnc(NC3Cc4ccccc4C3)nc2)cn1)N1CCc2[nH]nnc2C1` [Compound 56, 2-(4-{2-[(2,3-dihydro-1H-inden-2-yl)amino]pyrimidin-5-yl}-1H-pyrazol-1-yl)-1-{1H,4H,5H,6H,7H-[1,2,3]triazolo[4,5-c]pyridin-5-yl}ethan-1-one] has an IC50 of 2.2 nM. In the case of `O=C(Cn1cc(-c2cnc(NC3Cc4ccccc4C3)nc2)cn1)Nc1ccc2[nH]c(=O)oc2c1` [Compound 57, 2-(4-{2-[(2,3-dihydro-1H-inden-2-yl)amino]pyrimidin-5-yl}-1H-pyrazol-1-yl)-N-(2-oxo-2,3-dihydro-1,3-benzoxazol-6-yl)acetamide], the IC50 is reported as 2 nM. With `O=C(Cn1cc(-c2ccc(NC3Cc4ccccc4C3)nc2)cn1)N1CCc2[nH]nnc2C1` [Compound 58, 2-(4-{6-[(2,3-dihydro-1H-inden-2-yl)amino]pyridin-3-yl}-1H-pyrazol-1-yl)-1-{1H,4H,5H,6H,7H-[1,2,3]triazolo[4,5-c]pyridin-5-yl}ethan-1-one] the IC50 was 3.5 nM. `O=C(Cn1cc(-c2cnc(NC3Cc4ccccc4C3)cn2)cn1)N1CCc2[nH]nnc2C1` [Compound 59, 2-(4-{5-[(2,3-dihydro-1H-inden-2-yl)amino]pyrazin-2-yl}-1H-pyrazol-1-yl)-1-{1H,4H,5H,6H,7H-[1,2,3]triazolo[4,5-c]pyridin-5-yl}ethan-1-one] gave an IC50 of 11.1 nM. Work on `O=C(Cn1cnc(-c2cnc(NC3Cc4ccccc4C3)nc2)c1)N1CCc2[nH]nnc2C1` [Compound 60, 2-(4-{2-[(2,3-dihydro-1H-inden-2-yl)amino]pyrimidin-5-yl}-1H-imidazol-1-yl)-1-{1H,4H,5H,6H,7H-[1,2,3]triazolo[4,5-c]pyridin-5-yl}ethan-1-one] yielded an IC50 of 1.8 nM. Compound `O=C(Cn1cc(-c2cnc(NC3Cc4ccccc4C3)nc2)c(OC2CNC2)n1)N1CCc2[nH]nnc2C1` [Compound 62, 2-[3-(azetidin-3-yloxy)-4-{2-[(2,3-dihydro-1H-inden-2-yl)amino]pyrimidin-5-yl}-1H-pyrazol-1yl]-1-{1H,4H,5H,6H,7H-[1,2,3]triazolo[4,5-c]pyridin-5-yl}ethan-1-one hydrochloride] has an IC50 of 2.4 nM. With `O=C(Cn1cc(-c2cnc(NC3Cc4ccccc4C3)nc2)c(OCc2ccccc2)n1)N1CCOCC1` [Compound 64, 2-[3-(benzyloxy)-4-{2-[(2,3-dihydro-1H-inden-2-yl)amino]pyrimidin-5-yl}-1H-pyrazol-1-yl]-1-(morpholin-4-yl)ethan-1-one] the IC50 was 3 nM. `O=C(Cn1cc(-c2cnc(NC3Cc4ccccc4C3)nc2)c(O)n1)N1CCc2[nH]nnc2C1` [Compound 65, 2-(4-{2-[(2,3-dihydro-1H-inden-2-yl)amino]pyrimidin-5-yl}-3-hydroxy-1H-pyrazol-1-yl)-1-{1H,4H,5H,6H,7H-[1,2,3]triazolo[4,5-c]pyridin-5-yl}ethan-1-one] was tested, and the IC50 was < 1.56 nM. With `O=C(Cn1cc(-c2cnc(NC3Cc4ccccc4C3)nc2)c(OCCN2CCNCC2)n1)N1CCc2[nH]nnc2C1` [Compound 67, 2-(4-{2-[(2,3-dihydro-1H-inden-2-yl)amino]pyrimidin-5-yl}-3-[2-(piperazin-1-yl)ethoxy]-1H-pyrazol-1-yl)-1-{1H,4H,5H,6H,7H-[1,2,3]triazolo[4,5-c]pyridin-5-yl}ethan-1-one] the IC50 was 6.1 nM. With `O=C(Cn1cc(-c2cnc(NC3Cc4ccccc4C3)nc2)c(OC2CCNCC2)n1)N1CCc2[nH]nnc2C1` [Compound 69, 2-(4-{2-[(2,3-dihydro-1H-inden-2-yl)amino]pyrimidin-5-yl}-3-(piperidin-4-yloxy)-1H-pyrazol-1-yl)-1-{1H,4H,5H,6H,7H-[1,2,3]triazolo[4,5-c]pyridin-5-yl}ethan-1-one] the IC50 was 4 nM. Compound `O=C(Cn1cc(-c2cnc(NC3Cc4ccccc4C3)nc2)c(OC2CCN(CC(F)F)CC2)n1)N1CCc2[nH]nnc2C1` [Compound 71, 2-(3-{[1-(2,2-difluoroethyl)piperidin-4-yl]oxy}-4-{2-[(2,3-dihydro-1H-inden-2-yl)amino]pyrimidin-5-yl}-1H-pyrazol-1-yl)-1-{1H,4H,5H,6H,7H-[1,2,3]triazolo[4,5-c]pyridin-5-yl}ethan-1-one] has an IC50 of 3.6 nM. For `O=C(Cn1cc(-c2cnc(NC3Cc4ccccc4C3)nc2)c(C(=O)N2CCCCC2)n1)N1CCc2[nH]nnc2C1` [Compound 76, 2-(4-{2-[(2,3-dihydro-1H-inden-2-yl)amino]pyrimidin-5-yl}-3-(piperidine-1-carbonyl)-1H-pyrazol-1-yl)-1-{1H,4H,5H,6H,7H-[1,2,3]triazolo[4,5-c]pyridin-5-yl}ethan-1-one], the IC50 was 3 nM. Work on `O=C(Cn1cc(-c2cnc(NC3Cc4ccccc4C3)nc2)c(C(=O)N2CCNCC2)n1)N1CCc2[nH]nnc2C1` [Compound 77, 2-(4-{2-[(2,3-dihydro-1H-inden-2-yl)amino]pyrimidin-5-yl}-3-(piperazine-1-carbonyl)-1H-pyrazol-1-yl)-1-{1H,4H,5H,6H,7H-[1,2,3]triazolo[4,5-c]pyridin-5-yl}ethan-1-one hydrochloride] yielded an IC50 of 6.5 nM. With `CCc1c(-c2cnc(NC3Cc4ccccc4C3)nc2)cnn1CC(=O)N1CCc2[nH]nnc2C1` [Compound 78, 2-(4-{2-[(2,3-dihydro-1H-inden-2-yl)amino]pyrimidin-5-yl}-5-ethyl-1H-pyrazol-1-yl)-1-{1H,4H,5H,6H,7H-[1,2,3]triazolo[4,5-c]pyridin-5-yl}ethan-1-one] the IC50 was 2.4 nM. With `O=C(Cn1cc(-c2cnc(NC3Cc4ccccc4C3)nc2)c(CN2CCc3ccccc32)n1)N1CCc2[nH]nnc2C1` [Compound 83, 2-(4-{2-[(2,3-dihydro-1H-inden-2-yl)amino]pyrimidin-5-yl}-3-(2,3-dihydro-1H-indol-1-ylmethyl)-1H-pyrazol-1-yl)-1-{1H,4H,5H,6H,7H-[1,2,3]triazolo[4,5-c]pyridin-5-yl}ethan-1-one] the IC50 was 2.1 nM. With `O=C(Cn1cc(-c2cnc(NC3Cc4ccccc4C3)nc2)c(CN2CCC(F)(F)CC2)n1)N1CCc2[nH]nnc2C1` [Compound 85, 2-{3-[(4,4-difluoropiperidin-1-yl)methyl]-4-{2-[(2,3-dihydro-1H-inden-2-yl)amino]pyrimidin-5-yl}-1H-pyrazol-1-yl}-1-{1H,4H,5H,6H,7H-[1,2,3]triazolo[4,5-c]pyridin-5-yl}ethan-1-one hydrofluoride] the IC50 was 2.2 nM. In the case of `O=C(Cn1cc(-c2cnc(NC3Cc4ccccc4C3)nc2)c(CN2CC=C(c3ccccc3)CC2)n1)N1CCc2[nH]nnc2C1` [Compound 86, 2-(4-{2-[(2,3-dihydro-1H-inden-2-yl)amino]pyrimidin-5-yl}-3-[(4-phenyl-1,2,3,6-tetrahydropyridin-1-yl)methyl]-1H-pyrazol-1-yl)-1-{3H,4H,5H,6H,7H-[1,2,3]triazolo[4,5-c]pyridin-5-yl}ethan-1-one], the IC50 is reported as 3 nM. Compound `CN1CCN(Cc2nn(CC(=O)N3CCc4[nH]nnc4C3)cc2-c2cnc(NC3Cc4ccccc4C3)nc2)CC1=O` [Compound 87, 4-[(4-{2-[(2,3-dihydro-1H-inden-2-yl)amino]pyrimidin-5-yl}-1-(2-oxo-2-{1H,2H,3H,4H,5H,6H,7H-[1,2,3]triazolo[4,5-c]pyridin-5-yl}ethyl)-1H-pyrazol-3-yl)methyl]-1-methylpiperazin-2-one] has an IC50 of 3.1 nM. Work on `O=C1CNCCN1Cc1nn(CC(=O)N2CCc3[nH]nnc3C2)cc1-c1cnc(NC2Cc3ccccc3C2)nc1` [Compound 88, 1-[(4-{2-[(2,3-dihydro-1H-inden-2-yl)amino]pyrimidin-5-yl}-1-(2-oxo-2-{1H,4H,5H,6H,7H-[1,2,3]triazolo[4,5-c]pyridin-5-yl}ethyl)-1H-pyrazol-3-yl)methyl]piperazin-2-one] yielded an IC50 of 4.1 nM.

The compounds below were run on LPA production in blood serum (assay: Inhibitory activity on LPA production in mouse blood serum). Conditions: mouse blood serum (m), 18:1 LPC added.
Assay type: biochemical
In the case of `O=C(Cn1cc(-c2cnc(NC3Cc4ccccc4C3)nc2)cn1)N1CCc2[nH]nnc2C1` [Compound 56, 2-(4-{2-[(2,3-dihydro-1H-inden-2-yl)amino]pyrimidin-5-yl}-1H-pyrazol-1-yl)-1-{1H,4H,5H,6H,7H-[1,2,3]triazolo[4,5-c]pyridin-5-yl}ethan-1-one], the IC50 is reported as 13 nM. `O=C(Cn1cnc(-c2cnc(NC3Cc4ccccc4C3)nc2)c1)N1CCc2[nH]nnc2C1` [Compound 60, 2-(4-{2-[(2,3-dihydro-1H-inden-2-yl)amino]pyrimidin-5-yl}-1H-imidazol-1-yl)-1-{1H,4H,5H,6H,7H-[1,2,3]triazolo[4,5-c]pyridin-5-yl}ethan-1-one] was tested, and the IC50 was 11 nM. With `CCOc1nn(CC(=O)N2CCc3[nH]nnc3C2)cc1-c1cnc(NC2Cc3ccccc3C2)nc1` [Compound 61, 2-(4-{2-[(2,3-dihydro-1H-inden-2-yl)amino]pyrimidin-5-yl}-3-ethoxy-1H-pyrazol-1-yl)-1-{1H,4H,5H,6H,7H-[1,2,3]triazolo[4,5-c]pyridin-5-yl}ethan-1-one] the IC50 was 25 nM. `O=C(Cn1cc(-c2cnc(NC3Cc4ccccc4C3)nc2)c(OC2CNC2)n1)N1CCc2[nH]nnc2C1` [Compound 62, 2-[3-(azetidin-3-yloxy)-4-{2-[(2,3-dihydro-1H-inden-2-yl)amino]pyrimidin-5-yl}-1H-pyrazol-1yl]-1-{1H,4H,5H,6H,7H-[1,2,3]triazolo[4,5-c]pyridin-5-yl}ethan-1-one hydrochloride] gave an IC50 of 22 nM. In the case of `O=C(Cn1cc(-c2cnc(NC3Cc4ccccc4C3)nc2)c(O)n1)N1CCc2[nH]nnc2C1` [Compound 65, 2-(4-{2-[(2,3-dihydro-1H-inden-2-yl)amino]pyrimidin-5-yl}-3-hydroxy-1H-pyrazol-1-yl)-1-{1H,4H,5H,6H,7H-[1,2,3]triazolo[4,5-c]pyridin-5-yl}ethan-1-one], the IC50 is reported as 30 nM.
